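Method: 48-hour compound exposure of cells in 96-well plates, five concentrations, linear interpolation of endpoints. GI50 is the concentration that inhibits growth by half.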 The source made the active and inactive calls. Rule as the data show it: active = GI50 up to about 1.1 µM and inactive = higher.
What was measured:
Test in all cases: NCI anticancer screen, dose series, 48 h
[1] = test system: M14
[2] = test system: MOLT-4
[3] = test system: MCF7
[4] = test system: A498
[5] = test system: CCRF-CEM
[6] = test system: MDA-N
[7] = test system: HCC 2998
[8] = test system: OVCAR-8
[9] = test system: HCT-116
[10] = test system: SK-MEL-5
[11] = test system: EKVX
[12] = test system: SF-539
[13] = test system: OVCAR-3
[14] = test system: KM12
[15] = test system: NCI/ADR-RES
[16] = test system: OVCAR-5
[17] = test system: U-251
[18] = test system: NCI-H460
[19] = test system: ACHN
[20] = test system: A549
[21] = test system: MDA-MB-231
[22] = test system: RPMI-8226
[23] = test system: SNB-75
[24] = test system: SK-OV-3
[25] = test system: Malme-3M
[26] = test system: HL-60
[27] = test system: IGROV-1
[28] = test system: T47D
[29] = test system: HCT-15
[30] = test system: NCI-H23
[31] = test system: UO-31
[32] = test system: 786-0
[33] = test system: SK-MEL-2
[34] = test system: SNB-19
[35] = test system: SF-295
[36] = test system: HOP-92
[37] = test system: SF-268
[38] = test system: UACC-257
[39] = test system: OVCAR-4
[40] = test system: SW-620
[41] = test system: Hs-578T
[42] = test system: TK-10
[43] = test system: LOX IMVI
[44] = test system: HOP-62
[45] = test system: NCI-H522
[46] = test system: UACC-62
[47] = test system: MDA-MB-435
[48] = test system: HT-29
[49] = test system: SN12C
[50] = test system: PC-3
[51] = test system: DU-145
[52] = test system: NCI-H226
[53] = test system: SK-MEL-28
[54] = test system: RXF 393
[55] = test system: COLO 205
[56] = test system: BT-549
[57] = test system: CAKI-1
[58] = test system: K562

Which results are given for `O=C(c1ccc(Cl)cc1)N1N=C(c2ccc(Cl)cc2)CC1(O)c1cc(F)c(Cl)cc1Cl` (stereo not drawn)?
GI50 [1]: 28.7 µM (inactive); GI50 [2]: 9.25 µM (inactive); GI50 [3]: 7.14 µM (inactive); GI50 [4]: 13.6 µM (inactive); GI50 [5]: 18.7 µM (inactive); GI50 [6]: 13.6 µM (inactive); GI50 [7]: 15.5 µM (inactive); GI50 [8]: 21.3 µM (inactive); GI50 [9]: 5.66 µM (inactive); GI50 [10]: 68.2 µM (inactive); GI50 [11]: 8.59 µM (inactive); GI50 [12]: 69.3 µM (inactive); GI50 [13]: 21.8 µM (inactive); GI50 [14]: 6.97 µM (inactive); GI50 [15]: 18.4 µM (inactive); GI50 [16]: 28.2 µM (inactive); GI50 [17]: 15.5 µM (inactive); GI50 [18]: 21.7 µM (inactive); GI50 [19]: 21.3 µM (inactive); GI50 [20]: 19.6 µM (inactive); GI50 [21]: 34.2 µM (inactive); GI50 [22]: 8.22 µM (inactive); GI50 [23]: 10 µM (inactive); GI50 [24]: 62.4 µM (inactive); GI50 [25]: 30.6 µM (inactive); GI50 [26]: 21.2 µM (inactive); GI50 [27]: 17.9 µM (inactive); GI50 [28]: 9.95 µM (inactive); GI50 [29]: 15.5 µM; GI50 [30]: 12.2 µM (inactive); GI50 [31]: 9.06 µM (inactive); GI50 [32]: 18.9 µM (inactive); GI50 [33]: 17 µM (inactive); GI50 [34]: 14.6 µM (inactive); GI50 [35]: 20.6 µM (inactive); GI50 [36]: 11.6 µM (inactive); GI50 [37]: 47.4 µM (inactive); GI50 [38]: 25.7 µM (inactive); GI50 [39]: 12.8 µM (inactive); GI50 [40]: 17.4 µM (inactive); GI50 [41]: 39 µM (inactive); GI50 [42]: 52.7 µM (inactive); GI50 [43]: 15.2 µM (inactive); GI50 [44]: 32.1 µM (inactive); GI50 [45]: 12.9 µM (inactive); GI50 [46]: 21.5 µM (inactive); GI50 [47]: 16.7 µM (inactive); GI50 [48]: 8.95 µM (inactive); GI50 [49]: 14.5 µM (inactive); GI50 [50]: 10.4 µM (inactive); GI50 [51]: 27.3 µM (inactive); GI50 [52]: 50.6 µM (inactive); GI50 [53]: 44.3 µM (inactive); GI50 [54]: 23.9 µM (inactive); GI50 [55]: 18.4 µM (inactive); GI50 [56]: 62.2 µM (inactive); GI50 [57]: 13.8 µM (inactive); GI50 [58]: 7.24 µM (inactive)
